Measured values as given in patent US20250362302A1, “INTRACELLULAR LIGATION OF PHOTOCATALYSTS FOR PHOTO-RESPONSIVE, PROBE-MEDIATED PROTEIN LABELING” (Seed Therapeutics US, Inc., priority 2022, published 2025).

What was measured:
[1] = tested on: Halotag-KRAS(G12D); assay: Halotag chaser assay (TAMRA-Cl) for Ir-photocatalyst cell permeability, fluorescent Western blot; format: cell-based, human
Procedure: Photo-responsive labeling within cells was carried out as described similar to the procedure as described in Example 11. An Ir-photocatalyst master stock solution was prepared at 10 mM or 5 mM in 100% DMSO. KRAS (G12DHaloTag®/+) cells (HD-103-021, Horizon Discovery) were grown to 90% confluency in 6-well cell culture dishes using phenol-free RPMI1640 media (Gibco™). […] The cells were incubated for 1 or 2 hours at 37° C. The media was then aspirated and cells were gently washed twice with 2 mL fresh RPMI 1640, with an incubation of 10 minutes per wash at 37° C. TAMRA-Cl fluorescent dye (Promega, 68251) was diluted with OptiMEM to a 5 μM working solution. 0.8 mL of the working dye solution was added to the cells, and allowed to incubate for 15 minutes at 37° C. The cells were gently washed twice with 2 mL cold DPBS, aspirated, then added 200 μL RIPA supplemented with protease-phosphatase inhibitor (Halt™ Protease and Phosphatase Inhibitor Cocktail (100×)) and mixed briefly. The cell lysate was collected into 1.5 mL tubes. The cell lysate was sonicated using a probe-sonicator (SONICS vibra-cell Fisher Scientific) with 15 s on, 10 s off, at 30% amplitude for 3 cycles. The cell lysate was centrifuged at 18,000 g at 4° C. for 20 minutes. […] Cell lysates were processed and analyzed by fluorescent Western blot with anti-TAMRA and anti-β-Actin (for normalization) antibodies. […]

[2] = tested on: PI3 Kinase P110α; assay: Photo-responsive labeling within live cells, HALO-tag immunoprecipitation, Western blot with Anti-PI3k antibody; format: cell-based, human; details: labeling agent 250 μM, photocatalyst 10 μM, irradiation 450 nm 10 minutes, cell line 021
Procedure: (§1) Initially, reagents were prepared. An Ir—Cl photocatalyst master stock solution was prepared at 10 mM in 100% DMSO. The specific Ir—Cl photocatalyst used in this example was the photocatalyst prepared in accordance with Example 2. To create a working solution for the Ir—Cl catalyst, a portion of the Ir—Cl catalyst master stock solution was diluted in 1×DPBS, such that the final Ir—Cl catalyst concentration was 10 μM and the DMSO concentration was 0.1%. A labeling agent master stock was also prepared, having a 25 mM concentration in 100% DMSO. The particular labeling agent used was the one prepared in accordance with Example 1. To create a working solution for the labeling agent, a portion of the labeling agent master stock solution was diluted in 1×DPBS, such that the final concentration of labeling agent was 250 μM and the DMSO concentration was 1%.
(§2) A human KRAS (G12DHaloTag®/+) cell line (HD-103-021, Horizon Discovery) with protein reporter was grown to 80-90% confluence. Cells were harvested and pelleted down by centrifuging at 1000 g, for 5 minutes at 4° C. (Eppendorf Centrifuge 5427 R). Supernatant was discarded and the cell pellet was resuspended in ice cold 1×DPBS (Gibco™) and mixed. Subsequently, cells were again pelleted down by centrifuging at 1000 g, for 5 minutes at 4° C. Supernatant was discarded and fresh ice cold 1×DPBS was added to the pellet and mixed. […]

[3] = tested on: SOS1; assay: Photo-responsive labeling within live cells, streptavidin bead immunoprecipitation of biotinylated proteins, Western blot with anti-SOS1 antibody; format: cell-based, human; details: KRAS (G12DHaloTag/+) protein reporter cells with photocatalyst, labeling partner and irradiation; no distinct band in control cells HD-103-037 and HD-PAR-006
Procedure: as §1, §2

[4] = tested on: bovine serum albumin (BSA); assay: Catalyst-dependent biotinylation of bovine serum albumin, fluorescent Western blot with anti-biotin antibody; format: biochemical; details: labeling reagent WH8 100 uM, BSA 10 uM, catalyst 5 μM and 10 μM, 5 minutes irradiation at 450 nm; no band without irradiation
Procedure: Photocatalyst was combined with diazirine labeling compounds 8 or 9 and BSA in DPBS to yield reaction mixtures with 200 uL total solution volume. BSA concentration was 10 uM; diazirine labeling compound was fixed as 100 uM; the final catalyst concentration was set as 5 uM and 10 uM respectively. These samples were then either placed in the dark or irradiated with visible (450 nm) light in a M2 photoreactor for 5 minutes at 100% intensity. 60 uL samples were then removed, combined with 20 μL of 4× reducing SDS-Laemmli buffer (with 1:10 1 M DTT), mixed and heated at 95° C. for 5 minutes. 15 μL of each sample was then analyzed by Fluorescent western blot.
The sample was loaded into a 4-20% Tris-Glycine gel (Bio-Rad). Gel was run at 120V for 80 minutes or until the dye front reaches the end of the gel. Proteins were transferred from gel to nitrocellulose membrane using the iBlot 2 semi-dry Transfer apparatus. The membrane was used to detect total protein for normalization which follow the manufacturer's manual (Revert™ 700 Total Protein Stain, LI-COR). After that, the membrane rinsed once with TBST and blocked with h Intercept® Blocking Buffer for 1 hour at RT with gentle shaking. After blocking, membrane was washed with TBST and requisite antibody was added (1:1000) and kept for overnight at 4° C. on a shaker. […]

[5] = tested on: ikaros (IKZF1); assay: Western blot of IKZF1 in lysates of HALO.CRBN Jurkat cells exposed to pomalidomide or lenalidomide; format: cell-based; details: lanes, HALO.CRBN Jurkat cell lysates, compared with control or 1 μM pomalidomide lanes
Excerpt: A stable cell line, using Jurkat cells, was created where native cereblon (CRBN) was knocked out and a fusion of HaloTag protein and CRBN was expressed (referred to herein as “the HALO.CRBN Jurkat cell line”). […] The gel was stained using mouse anti-IKZF1 antibody. The dilution was 1:1000 and the exposure was about 10 seconds.

| Compound | binding to the Halotag (Halo-chaser assay, anti-TAMRA) ([1]; FIG. 21A, 1 hour treatment, 5 μM and 10 μM photocatalyst, KRAS (G12DHaloTag/+) cells, compared to DMSO control) | binding to the Halotag (Halo-chaser assay, anti-TAMRA) ([1]; FIG. 21B, 5 μM photocatalyst) | PI3 Kinase P110α band after HALO-tag IP (FIG. 4A) [2] | SOS1 band after streptavidin IP (FIG. 5F) [3] | biotinylation of BSA (anti-biotin fluorescent Western blot) [4] | IKZF1 level in Western blot (anti-IKZF1) [5] |
| --- | --- | --- | --- | --- | --- | --- |
| Cc1ccnc(-c2cc(CCC(=O)NCCOCCOCCOCCOCCCCCCCl)ccn2)c1.Fc1cc(F)c(-c2ccc(C(F)(F)F)cn2)[c]([Ir+][c]2cc(F)cc(F)c2-c2ccc(C(F)(F)F)cn2)c1 [IR1] | a little less binding to the Halo tag | majority binding | distinct band of PI3 Kinase P110α | distinct SOS1 band observed |  |  |
| [N-]=[N+]=Nc1ccc(C(=O)NCCOCCOCCOCCNC(=O)CCCC[C@@H]2SC[C@@H]3NC(=O)N[C@@H]32)cc1 [WH8, 4-azido-N-(13-oxo-17-((3aS,4S,6aR)-2-oxohexahydro-1H-thieno[3,4-d]imidazol-4-yl)-3,6,9-trioxa-12-azaheptadecyl)benzamide] |  |  | distinct band of PI3 Kinase P110α | distinct SOS1 band observed | biotinylated BSA bands |  |
| Nc1cccc2c1C(=O)N(C1CCC(=O)NC1=O)C2=O (centres unmarked) [pomalidomide] |  |  |  |  |  | observably less IKZF1 |
